Test system: E. coli strain W3110
Assay: Synergy assays: Biolog chemical sensitivity panels with Group IB metal, coefficient of drug interaction (CDI) from relative growth
Format: cell-based
Details: for CDI (coefficient of drug interaction), copper mixed with biocide: Copper (mM) section
[1] = 1st of 3 copper concentrations (value not shown), 4th of four biocide concentrations
[2] = 2nd of 3 copper concentrations (value not shown), 4th of four biocide concentrations
[3] = 3rd of 3 copper concentrations (value not shown), 4th of four biocide concentrations
[4] = Silver 0.5 μM, 3rd of four biocide concentrations, E. coli
[5] = Silver 0.5 μM, 4th of four biocide concentrations, E. coli
[6] = Silver 1.0 μM, 3rd of four biocide concentrations, E. coli
[7] = Silver 1.0 μM, 4th of four biocide concentrations, E. coli
[8] = Silver 5.0 μM, 3rd of four biocide concentrations, E. coli
[9] = Silver 5.0 μM, 4th of four biocide concentrations, E. coli

CCCCCCCCCCCC[N+](C)(C)C.[Br-] [Dodecyltrimethyl NH4^+ Br^−]
CDI (coefficient of drug interaction), copper mixed with biocide (1st of 3 copper concentrations (value not shown), 1st of four biocide concentrations): 1.20
CDI (coefficient of drug interaction), copper mixed with biocide (1st of 3 copper concentrations (value not shown), 3rd of four biocide concentrations): 1.51
CDI (coefficient of drug interaction), copper mixed with biocide [1]: Tox
CDI (coefficient of drug interaction), copper mixed with biocide (2nd of 3 copper concentrations (value not shown), 1st of four biocide concentrations): 1.02
CDI (coefficient of drug interaction), copper mixed with biocide (2nd of 3 copper concentrations (value not shown), 2nd of four biocide concentrations): 1.04
CDI (coefficient of drug interaction), copper mixed with biocide (2nd of 3 copper concentrations (value not shown), 3rd of four biocide concentrations): Tox
CDI (coefficient of drug interaction), copper mixed with biocide [2]: Tox
CDI (coefficient of drug interaction), copper mixed with biocide (3rd of 3 copper concentrations (value not shown), 1st of four biocide concentrations): 0.77
CDI (coefficient of drug interaction), copper mixed with biocide (3rd of 3 copper concentrations (value not shown), 2nd of four biocide concentrations): 0.73
CDI (coefficient of drug interaction), copper mixed with biocide (3rd of 3 copper concentrations (value not shown), 3rd of four biocide concentrations): 1.63
CDI (coefficient of drug interaction), copper mixed with biocide [3]: Tox
CDI (coefficient of drug interaction) (Gold section of Table 5, first of three gold concentrations (μM, value not given), biocide concentration 1 of 4): 0.96
CDI (coefficient of drug interaction) (Gold section of Table 5, first of three gold concentrations (μM, value not given), biocide concentration 2 of 4): 1.00
CDI (coefficient of drug interaction) (Gold section of Table 5, first of three gold concentrations (μM, value not given), biocide concentration 3 of 4): 0.95
CDI (coefficient of drug interaction) (Gold section of Table 5, first of three gold concentrations (μM, value not given), biocide concentration 4 of 4): Tox
CDI (coefficient of drug interaction) (Gold section of Table 5, second of three gold concentrations (μM, value not given), biocide concentration 1 of 4): 0.96
CDI (coefficient of drug interaction) (Gold section of Table 5, second of three gold concentrations (μM, value not given), biocide concentration 2 of 4): 0.94
CDI (coefficient of drug interaction) (Gold section of Table 5, second of three gold concentrations (μM, value not given), biocide concentration 3 of 4): 1.11
CDI (coefficient of drug interaction) (Gold section of Table 5, second of three gold concentrations (μM, value not given), biocide concentration 4 of 4): Tox
CDI (coefficient of drug interaction) (Gold section of Table 5, third of three gold concentrations (μM, value not given), biocide concentration 1 of 4): 1.02
CDI (coefficient of drug interaction) (Gold section of Table 5, third of three gold concentrations (μM, value not given), biocide concentration 2 of 4): 1.14
CDI (coefficient of drug interaction) (Gold section of Table 5, third of three gold concentrations (μM, value not given), biocide concentration 3 of 4): 1.05
CDI (coefficient of drug interaction) (Gold section of Table 5, third of three gold concentrations (μM, value not given), biocide concentration 4 of 4): Tox
CDI (coefficient of drug interaction), silver + biocide (Silver 0.5 μM, 1st of four biocide concentrations, E. coli): 0.63
CDI (coefficient of drug interaction), silver + biocide (Silver 0.5 μM, 2nd of four biocide concentrations, E. coli): 0.91
CDI (coefficient of drug interaction), silver + biocide [4]: Tox
CDI (coefficient of drug interaction), silver + biocide [5]: Tox
CDI (coefficient of drug interaction), silver + biocide (Silver 1.0 μM, 1st of four biocide concentrations, E. coli): 1.00
CDI (coefficient of drug interaction), silver + biocide (Silver 1.0 μM, 2nd of four biocide concentrations, E. coli): 1.04
CDI (coefficient of drug interaction), silver + biocide [6]: Tox
CDI (coefficient of drug interaction), silver + biocide [7]: Tox
CDI (coefficient of drug interaction), silver + biocide (Silver 5.0 μM, 1st of four biocide concentrations, E. coli): 0.59
CDI (coefficient of drug interaction), silver + biocide (Silver 5.0 μM, 2nd of four biocide concentrations, E. coli): 0.47
CDI (coefficient of drug interaction), silver + biocide [8]: Tox
CDI (coefficient of drug interaction), silver + biocide [9]: Tox

Cc1ccc2c(Cl)cc(Cl)c(O)c2n1 [5,7-dichloro-8-hydroxyquinaldine]
CDI (coefficient of drug interaction), silver + biocide [5]: Tox
CDI (coefficient of drug interaction), silver + biocide [7]: Tox
CDI (coefficient of drug interaction), silver + biocide [9]: Tox

Oc1ccccc1-c1ccccc1 [2-phenylphenol]
CDI (coefficient of drug interaction), copper mixed with biocide [1]: Tox
CDI (coefficient of drug interaction), copper mixed with biocide [2]: Tox
CDI (coefficient of drug interaction), copper mixed with biocide [3]: Tox
CDI (coefficient of drug interaction) (Gold 5 μM, biocide concentration 4 of 4, E. coli): Tox
CDI (coefficient of drug interaction) (Gold 25 μM, biocide concentration 4 of 4, E. coli): Tox
CDI (coefficient of drug interaction), silver + biocide [4]: Tox
CDI (coefficient of drug interaction), silver + biocide [5]: Tox
CDI (coefficient of drug interaction), silver + biocide [6]: Tox
CDI (coefficient of drug interaction), silver + biocide [7]: Tox
CDI (coefficient of drug interaction), silver + biocide [8]: Tox
CDI (coefficient of drug interaction), silver + biocide [9]: Tox
CDI (coefficient of drug interaction) ([…], biocide concentration 4 of 4, E. coli): Tox

Nc1c2ccccc2nc2ccccc12 [9-aminoacridine]
CDI (coefficient of drug interaction), copper mixed with biocide [2]: Tox
CDI (coefficient of drug interaction), silver + biocide [5]: Tox
CDI (coefficient of drug interaction), silver + biocide [7]: Tox
CDI (coefficient of drug interaction), silver + biocide [9]: Tox

From patent US11382328B2, “Rapid drug discovery methods for pathogen inactivation” (priority 2019, dated 2022)
